No end group written: not given here. Me3 = trimethyl (trimethylated lysine)
Assays:
[1] = biological target: T1, interaction between P53 and MDM2 (Homo sapiens, UniProt Q00987); assay: Intracellular detection of the P53-MDM2 interaction in HEK293 cells co-transfected with GFP-NUPN-P53 and mCherry-MDM2; type: cell-based; conditions: system 8, final concentration of 5 μM, same field before and after treatment
Protocol: Each recombinant vector obtained in step I was transfected (or co-transfected) into HEK293 cells (adherent culture) according to the following combinations, and the transfection reagent Hifectin I (Beijing Dinoao Biotechnology Co., Ltd.) was used, and the operation was performed according to the instruction of the reagent. The combinations and the amount of the transfection vector(s) per 105 HEK293 cells were as follows:
combination 1: pcDNA3.1-GFP-NUPN, the transfection dosage of the vector was 1 μg; combination 2: pcDNA3.1-mCherry, the transfection dosage of the vector was 1 μg; combination 3: pcDNA3.1-GFP-NUPN+pcDNA3.1-mCherry, the transfection dosages of these two vectors were 0.5 μg and 0.5 μg, respectively; combination 4: pcDNA3.1-GFP-NUPN-P53, the transfection dosage of the vector was 1 μg; combination 5: pcDNA3.1-GFP-NUPN-P53+pcDNA3.1-mCherry, the transfection dosages of these two vectors were 0.5 μg and 0.5 μg, respectively; combination 6: pcDNA3.1-mCherry-MDM2, the transfection dosage of the vector was 1 μg; combination 7: pcDNA3.1-GFP-NUPN+pcDNA3.1-mCherry-MDM2, the transfection dosages of these two vectors were 0.5 μg and 0.5 μg, respectively; combination 8: pcDNA3.1-GFP-NUPN-P53+pcDNA3.1-mCherry-MDM2, the transfection dosages of these two vectors were 0.5 μg and 0.5 μg, respectively. […]

[2] = biological target: T1, interaction between P53 and MDM2; assay: Phase transition droplet detection of the effect of a regulatory factor on the P53-MDM2 interaction (SGS-P53, mCherry-MDM2, His-SGP); type: binding; set-up: His-tag (N); made in house; host or cells: E. coli BL21 (DE3); conditions: MI-773 1.25-25 μM, ampicillin 25 μM; SGS-P53, mCherry-MDM2 and His-SGP all 0.5 μM; static incubation at 4° C.
Protocol: the solutions of SGS-P53, mCherry-MDM2, His-SGP and ampicillin were mixed, and then 20 μL of the resulting mixture was transferred to a 384-microwell plate to obtain an ampicillin control system and the concentrations of SGS-P53, mCherry-MDM2 and His-SGP were all 0.5 μM in the ampicillin control system, and the concentration of ampicillin was 25 μM;
According to the above system, the solutions of SGS-P53, mCherry-MDM2, His-SGP and MI-773 were mixed, and then 20 μL of the resulting mixture was transferred into a 384-microwell plate. Different concentrations of MI-773 were set to obtain experimental systems with different concentrations of MI-773. The concentration of MI-773 in each experimental system was 0 (i.e., KMEI buffer), 1.25, 2.5, 5, 10, 15, and 25 μM, respectively, one concentration per well, and in each experimental system, the concentrations of SGS-P53, mCherry-MDM2 and His-SGP were all 0.5 μM.
Each of the above systems was subjected to static incubation at 4° C. until the phase transition droplets in the systems in which phase transitions occurred completely settled to the bottom of the well plate, and the image of each system was collected using a confocal high-content imaging microscope and the intensity of the red fluorescence signal in the phase transition droplets in each well plate was counted and analyzed.

[3] = biological target: T2, interaction between FKBP and FRB (Homo sapiens, UniProt P42345+P62942); assay: Phase transition droplet detection of the effect of a regulatory factor on the FKBP-FRB interaction (SGS-FKBP, mCherry-FRB, His-SGP); type: binding; conditions: rapamycin 0.2-1.0 μM, ampicillin control, mCherry-FRB and His-SGP all 1 μM, static incubation at 4° C.
T2 construct: His-SGS (His-tag, SmF, GFP, SH3 and linking regions); His-tag (N); made in house; host or cells: E. coli BL21 (DE3)
T2 sequence (P62942 with tags, fused parts or gaps): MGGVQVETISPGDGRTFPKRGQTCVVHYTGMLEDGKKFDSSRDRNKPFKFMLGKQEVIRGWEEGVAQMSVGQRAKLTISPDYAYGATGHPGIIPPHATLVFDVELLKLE
T2 sequence (P42345 with tags, fused parts or gaps): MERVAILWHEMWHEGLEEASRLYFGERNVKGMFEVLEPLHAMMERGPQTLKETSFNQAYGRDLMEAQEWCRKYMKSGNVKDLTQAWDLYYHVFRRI
Excerpt: Different concentrations of rapamycin were set to obtain experimental systems with different concentrations of rapamycin.

CD = biological target: T3, CD (Homo sapiens, UniProt P83916); assay: Phase transition droplet detection of the interaction between H3K9me3 and CD (SGS-CD, His-SGP, Hfq-mCherry-PDZ); type: binding; conditions: systems 15-20 with Hfq-mCherry-PDZ; mixture completely composed of the named peptide; all components 1 μM
T3 construct: His-SGS (His-tag, SmF, GFP, SH3 and linking regions); made in house; host or cells: E. coli BL21 (DE3)
T3 sequence (P83916 19-83): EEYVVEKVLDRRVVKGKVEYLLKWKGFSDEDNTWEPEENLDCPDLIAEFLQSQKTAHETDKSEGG
Protocol: The concentrations of His-SGS, SGS-CD, His-SGP, Hfq-mCherry-PDZ, mCherry-PDZ and the mixture of H3K9me3-KKETPV and H3K9-KKETPV in the corresponding systems were all 1 μM:
In Table 2, “+” represents that the substance is contained; “−” represents that the substance is not contained; “*” represents a mixture of H3K9me3-KKETPV and H3K9-KKETPV. In the systems 9-14, the molar percentages of H3K9me3-KKETPV in the mixture of H3K9me3-KKETPV and H3K9-KKETPV were 0, 0.2, 0.4, 0.6, 0.8 and 1.0, respectively, and in the systems 15-20, the molar percentages of H3K9me3-KKETPV in the mixture of H3K9me3-KKETPV and H3K9-KKETPV were 0, 0.2, 0.4, 0.6, 0.8 and 1.0, respectively.
Each of the above systems was subjected to a static incubation at 4° C. until the phase transition droplets in the systems in which phase transitions occurred completely settled to the bottom of the well plate, and the images were collected using a confocal high-content imaging microscope.

T1 sequence (Q00987 with tags, fused parts or gaps): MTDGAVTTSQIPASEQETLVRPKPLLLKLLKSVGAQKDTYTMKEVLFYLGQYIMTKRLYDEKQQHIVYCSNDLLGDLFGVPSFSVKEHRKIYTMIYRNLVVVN

| Molecule | effect on the interaction between P53 and MDM2 in cells (accumulation of red fluorescent signal in the second phase) [1] | effect on the interaction between P53 and MDM2 (red fluorescence signal in the phase transition droplets) [2] | effect on the interaction between FRB and FKBP (red fluorescence signal in the phase transition droplets) [3] | red fluorescence signal (mCherry) in the phase transition droplets (CD) |
| --- | --- | --- | --- | --- |
| CN[C@@H](C)C(=O)N[C@H](C(=O)N1CCC[C@H]1C(=O)Nc1snnc1-c1ccccc1)C1CCCCC1 [GDC0152] | does not affect |  |  |  |
| CC(C)(C)C[C@@H]1N[C@@H](C(=O)N[C@H]2CC[C@H](O)CC2)[C@H](c2cccc(Cl)c2F)[C@]12C(=O)Nc1cc(Cl)ccc12 [MI-773] | significantly inhibit | significantly inhibit |  |  |
| CC1(C)S[C@@H]2[C@H](NC(=O)[C@H](N)c3ccccc3)C(=O)N2[C@H]1C(=O)O [ampicillin] |  | does not affect | does not affect |  |
| ARTK (Me) 3QTARGGSGGSGGSWGGSKKETPVAV (ARTK(Me3)QTARGGSGGSGGSWGGSKKETPVAV) [H3K9me3-KKETPV] |  |  |  | reached the highest |
| H3K9-KKETPV: unmethylated peptide as shown in SEQ ID NO: 23, used as a control (ARTKQTARGGSGGSGGSWGGSKKETPVAV) |  |  |  | no significant red fluorescence |

Source: US20200355685A1, “REAGENT SET FOR DETECTING INTERACTIONS BETWEEN BIOMOLECULES AND THEIR REGULATORY FACTORS, AND APPLICATIONS” (TSINGHUA UNIVERSITY, priority 2017, published 2020)
